Assay results reported in patent publication US20260125440A1, “INCRETIN ANALOGS AND USES THEREOF” (ELI LILLY AND COMPANY, priority 2019, published 2026).
Like-named read-outs stand apart in the source and are kept apart here. Numbered stars: 1 amine (or outer) side, 2 acyl side, 3 side chain; on linkers, the order of the positions; unused ones are H or OH. Square brackets hold non-standard residues; d marks the D form. Side chains are listed from the residue outwards. Peptide text beside a SMILES is read from it. * marks the point of attachment. ξ: configuration not given here. C20 diacid = O=C(O)CCCCCCCCCCCCCCCCCCC(=O)*; αMePhe(2-F) = C[C@](N)(Cc1ccccc1F)C(=O)O; γGlu = O=C(O)[C@H](CCC(=O)[*:2])N[*:1]; αMeY = C[C@](N)(Cc1ccc(O)cc1)C(=O)O; 4Pal = N[C@@H](Cc1ccncc1)C(=O)O; αMeL = CC(C)C[C@](C)(N)C(=O)O; Orn = NCCC[C@H](N)C(=O)O; ξIva = CCC(C)(N)C(=O)O; AEEA = NCCOCCOCC(=O)O; Aib = CC(C)(N)C(=O)O

What was measured:
hGIPR = target: T1, hGIPR (Homo sapiens, UniProt P48546); assay: Functional cAMP assay in HEK-293 cells expressing hGIPR; format: cell-based; settings: percent of maximal response to GIP(1-42)NH2
T1 construct: expressed in transfected cells; host or cells: HEK-293 clonal cell line
T1 sequence (P48546 22-466): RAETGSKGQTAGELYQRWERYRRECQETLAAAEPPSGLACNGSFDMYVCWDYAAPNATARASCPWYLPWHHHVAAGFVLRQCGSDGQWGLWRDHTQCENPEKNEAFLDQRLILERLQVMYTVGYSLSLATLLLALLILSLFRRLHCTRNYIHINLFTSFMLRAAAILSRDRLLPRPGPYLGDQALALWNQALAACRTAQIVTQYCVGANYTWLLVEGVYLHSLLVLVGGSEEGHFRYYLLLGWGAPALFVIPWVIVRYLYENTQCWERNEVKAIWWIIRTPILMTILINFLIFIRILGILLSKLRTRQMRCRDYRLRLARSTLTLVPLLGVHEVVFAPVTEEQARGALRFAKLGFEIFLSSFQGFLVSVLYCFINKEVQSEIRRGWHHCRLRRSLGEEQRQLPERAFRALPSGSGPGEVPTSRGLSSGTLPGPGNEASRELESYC
Description: (§1) Experiments also are performed under identical assay conditions with the addition of 1.0% fatty acid free, globulin free human serum albumin (Sigma Cat #A3782).
(§2) After a 30-min incubation at 37° C., the resulting increase in intracellular cAMP is quantitatively determined using a CisBio cAMP Dynamic 2 HTRF Assay Kit (62AM4PEJ). Briefly, cAMP levels within the cell are detected by adding the cAMP-d2 conjugate in cell lysis buffer (10 μL) followed by the antibody anti-cAMP-Eu^3+-Cryptate, also in cell lysis buffer (10 μL). The resulting competitive assay is incubated for at least 60 min at room temperature, and then is detected using a PerkinElmer Envision® instrument with excitation at 320 nm and emission at 665 nm and 620 nm. Envision units (emission at 665 nm/620 nm*10,000) are inversely proportional to the amount of cAMP present and are converted to nM cAMP per well using a cAMP standard curve. […] A relative EC50 value and percent top (Emax) are derived by non-linear regression analysis using the percent maximal response vs. the concentration of peptide added, fitted to a four-parameter logistic equation.

[1] = Pharmacokinetics in male diet-induced obese (DIO) mice; format: in vivo; settings: mouse, single 200 nmol/kg SQ dose, plasma; for half-life: read-out: t½ (converted)
Description: Methods: Male DIO mice are administered a single SQ dose of 200 nmol/kg (0.98 mg/kg) of Example compounds in 40 mM Tris-HCL pH8 buffer with 0.02% PS80 at a volume of 10 mL/kg. […] Plasma concentration of Example compounds are determined by a qualified Liquid Chromatography Mass Spectrometry (LC/MS) method at Q Squared Solutions BioSciences LLC (Ithaca, NY). The Example compounds and an internal standard are extracted from 100% mouse plasma using protein precipitation followed by solid phase extraction. The intact mass of the Example compounds, which includes peptide plus acyl chain, are detected by a Q-Exactive™ Orbitrap® mass spectrometer.

hGLP-1R = target: T2, hGLP-1R (Homo sapiens, UniProt P43220); assay: Functional cAMP assay in HEK-293 cells expressing hGLP-1R; format: cell-based; settings: percent of maximal response to GLP-1(7-36)NH2
T2 construct: expressed in transfected cells; host or cells: HEK-293 clonal cell line
Description: as §1, §2

T2 sequence (P43220 24-463): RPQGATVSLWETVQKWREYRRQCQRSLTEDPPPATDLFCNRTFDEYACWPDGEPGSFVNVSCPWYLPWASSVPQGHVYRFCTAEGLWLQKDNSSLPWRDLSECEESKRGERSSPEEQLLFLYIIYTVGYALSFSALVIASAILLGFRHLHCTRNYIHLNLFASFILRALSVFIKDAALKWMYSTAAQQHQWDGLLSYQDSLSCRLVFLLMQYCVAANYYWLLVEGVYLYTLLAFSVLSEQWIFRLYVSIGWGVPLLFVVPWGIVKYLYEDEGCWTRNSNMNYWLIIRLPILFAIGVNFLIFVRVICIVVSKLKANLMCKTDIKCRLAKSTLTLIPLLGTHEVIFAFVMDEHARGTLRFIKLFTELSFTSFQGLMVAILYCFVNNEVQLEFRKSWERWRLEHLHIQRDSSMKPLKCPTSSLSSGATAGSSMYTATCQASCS

| SMILES | Emax (hGIPR; HEK293, read-out: hGIPR Emax, 0.1% bovine casein and 1.0% human serum albumin) | Emax (hGIPR; HEK293, read-out: hGIPR Emax, 0.1% bovine casein) | AUC(0-inf) ([1]; in vivo) | CL/F ([1]; in vivo) | Cmax ([1]; in vivo) | Tmax ([1]; in vivo) | half-life ([1]; in vivo) | Emax (hGLP-1R; HEK293, read-out: hGLP-1R Emax, 0.1% bovine casein and 1.0% human serum albumin) | Emax (hGLP-1R; HEK293, read-out: hGLP-1R Emax, 0.1% bovine casein) | Emax (hGIPR; HEK293, 0.1% bovine casein and 1.0% human serum albumin, read-out: hGIPR Emax) | Emax (hGIPR; HEK293, 0.1% bovine casein, read-out: hGIPR Emax) | AUC(0-inf) ([1]; subcutaneous) | CL/F ([1]; subcutaneous) | Cmax ([1]; subcutaneous) | Tmax ([1]; subcutaneous) | half-life ([1]; subcutaneous) |
| --- | --- | --- | --- | --- | --- | --- | --- | --- | --- | --- | --- | --- | --- | --- | --- | --- |
| CC[C@H](C)[C@H](NC(=O)[C@H](Cc1ccccc1)NC(=O)[C@H](C)NC(=O)[C@H](Cc1ccncc1)NC(=O)[C@H](CCC(N)=O)NC(=O)[C@H](C)NC(=O)[C@H](CCCCNC(=O)COCCOCCNC(=O)CC[C@H](NC(=O)CCCCCCCCCCCCCCCCCCC(=O)O)C(=O)O)NC(=O)[C@H](CCCN)NC(=O)[C@H](CC(=O)O)NC(=O)[C@H](CC(C)C)NC(=O)[C@H](CC(C)C)NC(=O)[C@@H](NC(=O)[C@H](CO)NC(=O)[C@H](Cc1ccc(O)cc1)NC(=O)[C@H](CC(=O)O)NC(=O)[C@H](CO)NC(=O)[C@@H](NC(=O)[C@](C)(Cc1ccccc1F)NC(=O)[C@@H](NC(=O)CNC(=O)[C@H](CCC(N)=O)NC(=O)C(C)(C)NC(=O)[C@@H](N)Cc1ccc(O)cc1)[C@@H](C)O)[C@@H](C)O)[C@@H](C)CC)C(=O)N[C@@H](CCC(=O)O)C(=O)N[C@@H](Cc1ccc(O)cc1)C(=O)N[C@@H](CC(C)C)C(=O)N[C@@H](CC(C)C)C(=O)N[C@@H](CCC(=O)O)C(=O)NCC(=O)NCC(=O)N1CCC[C@H]1C(=O)N[C@@H](CO)C(=O)N[C@@H](CO)C(=O)NCC(=O)N[C@@H](CCC(=O)O)C(=O)N1CCC[C@H]1C(=O)N1CCC[C@H]1C(=O)N1CCC[C@H]1C(=O)N[C@@H](CCC(=O)O)C(N)=O [Example 1] (H-Y[Aib]QGT[αMePhe(2-F)]TSDYSILLD[Orn]K([AEEA-γGlu-C20 diacid])AQ[4Pal]AFIEYLLEGGPSSGEPPPE-NH2) | 100 ± 3% | 102 ± 2% | 55.6 µM·h | 3.6 mL/h/kg | 817 nM | 12 h | 2280 min | 102 ± 4% | 106 ± 4% |  |  |  |  |  |  |  |
| CC[C@H](C)[C@H](NC(=O)[C@H](Cc1ccccc1)NC(=O)[C@H](C)NC(=O)C(C)(CC)NC(=O)[C@H](CCC(N)=O)NC(=O)[C@H](C)NC(=O)[C@H](CCCCNC(=O)COCCOCCNC(=O)CC[C@H](NC(=O)CCCCCCCCCCCCCCCCCCC(=O)O)C(=O)O)NC(=O)[C@H](CCCN)NC(=O)[C@H](CC(=O)O)NC(=O)[C@H](CC(C)C)NC(=O)[C@](C)(CC(C)C)NC(=O)[C@@H](NC(=O)[C@H](CO)NC(=O)[C@H](Cc1ccc(O)cc1)NC(=O)[C@H](CC(=O)O)NC(=O)[C@H](CO)NC(=O)[C@@H](NC(=O)[C@](C)(Cc1ccccc1F)NC(=O)[C@@H](NC(=O)CNC(=O)[C@H](CCC(N)=O)NC(=O)C(C)(C)NC(=O)[C@@H](N)Cc1ccc(O)cc1)[C@@H](C)O)[C@@H](C)O)[C@@H](C)CC)C(=O)N[C@@H](CCC(=O)O)C(=O)N[C@@](C)(Cc1ccc(O)cc1)C(=O)N[C@@H](CC(C)C)C(=O)N[C@@H](CC(C)C)C(=O)N[C@@H](CCC(=O)O)C(=O)NCC(=O)NCC(=O)N1CCC[C@H]1C(=O)N[C@@H](CO)C(=O)N[C@@H](CO)C(=O)NCC(=O)N[C@@H](CCC(=O)O)C(=O)N1CCC[C@H]1C(=O)N1CCC[C@H]1C(=O)N1CCC[C@H]1C(=O)N[C@@H](CO)C(N)=O (stereo partly shown) [Example 2] (H-Y[Aib]QGT[αMePhe(2-F)]TSDYSI[αMeL]LD[Orn]K([AEEA-γGlu-C20 diacid])AQ[ξIva]AFIE[αMeY]LLEGGPSSGEPPPS-NH2; N-terminus assumed) |  |  |  |  |  |  |  |  |  | 99 ± 2% | 101 ± 2% | 42.5 µM·h | 4.7 mL/h/kg | 1240 nM | 12 h | 1080 min |
